Laboratory results taken from patent US10202412B2, “β-D-2′-deoxy-2′-substituted-4′-substituted-2-substituted-N6-substituted-6-aminopurinenucleotides for the treatment of paramyxovirus and orthomyxovirus infections” (Atea Pharmaceuticals, Inc., priority 2016, dated 2019).

How the values were obtained:
[1] = system: Respiratory syncytial virus (RSV) type A, strain A2 (ATCC VR-1540); test: dNHBE assay: RSV virus yield reduction (EC90); assay type: cell-based; conditions: human respiratory syncytial virus, RSV (A2) in dNHBE cells; concentration reducing virus yield by 1 log10; mean of at least two experiments
Method: (§1) Differentiated normal human bronchial epithelial (dNHBE) cells were grown on 6 mm mesh disks in transwell inserts to approximately 1.2×10^6 cells/disk and disks were transferred to individual wells of a 6-well plate. 1 mL of proprietary culture medium was added to the basolateral side of the cells and the apical side was exposed to a humidified 95% air/5% CO2 environment. Cells were cultured at 37° C. for one day and then the mucin layer was removed from the apical side of the cells by repeated (3×) washing with 500 μL 30 mM HEPES buffered saline solution and culture medium on the basal side was replenished.
Respiratory syncytial virus (RSV) type A, strain A2 (ATCC VR-1540), previously passaged in MA-104 cells to make working stock cultures, was diluted 1/10 in medium before infection, using a multiplicity of infection (MOI) of ≤0.03 CCID50 per cell.
(§2) Various concentrations of test compounds in medium were applied in duplicate to the apical (140 μL) and basal sides (1 mL) for a 1 hour pre-treatment, followed by addition of 140 μL of virus inoculum to each cell insert on the apical side. The viral inoculum and treatments were removed after 2 hours. Control cells were treated with placebo (culture medium only). Following infection, the apical medium was removed and the basal side was replaced with fresh compound in medium. The cells were maintained at the air-liquid interface, and cell culture medium on the basal side was replaced daily with fresh medium containing test compound. After 4 days, the liquid was removed from the basal side and discarded and virus released into the apical compartment was harvested by the addition of 500 μL of culture medium. The medium was thoroughly mixed, then removed, diluted 1:1 with 40% sucrose and stored at ≤−80° C.
To determine the virus titer from each treated cell culture, MA-104 cells were seeded in 96-well plates and grown overnight (37° C.) to confluence. Samples containing virus were diluted in 10-fold increments in infection medium and 200 μL of each dilution transferred into respective wells of a 96-well microtiter plate. Four microwells were used for each dilution to determine 50% viral endpoints. After 7 days of incubation, each well was scored positive for virus if any cytopathic effect was observed as compared with the uninfected control. The virus dose that was able to infect 50% of the cell cultures (CCID50 per 0.1 mL) was calculated by the Reed-Muench method. This was repeated in duplicate for each test sample, so that values reported are an average of 2 independent CCID5o determinations. Untreated, uninfected cell controls were tested as negative controls. Statistical differences in the titers were evaluated with a one-way analysis of variance (ANOVA) followed by Dunnett's multiple comparisons test compared with the untreated virus controls.
(§3) Concentrations of test compounds that reduced virus yield by 1 log10 (90% effective concentration; EC90) were calculated by regression analysis. The reported EC90 value is the mean of at least two experiments. Potential toxicity of the test compounds was evaluated microscopically.

[2] = system: Differentiated normal human bronchial epithelial (dNHBE) cells; test: dNHBE assay: toxicity evaluated microscopically; assay type: cell-based; set-up: unit not given here
Method: as §1, §2, §3

Structure (SMILES)	EC90 [1]	Visual toxicity [2]
CC(C)OC(=O)[C@H](C)N[P@](=O)(OC[C@@]1(C)O[C@@H](n2cnc3c(N(C)C)nc(N)nc32)[C@H](F)[C@@H]1O)Oc1ccccc1 [AA]	3500 nM	>167
COc1nc(N(C)C)c2ncn([C@@H]3O[C@](C)(CO[P@@](=O)(N[C@@H](C)C(=O)OC(C)C)Oc4ccccc4)[C@@H](O)[C@H]3F)c2n1 [AF, (S)-Isopropyl 2-(((S)-(((2R,3R,4R,5R)-5-(6-(dimethylamino)-2-methoxy-9H-purin-9-yl)-4-fluoro-3-hydroxy-2-methyltetrahydrofuran-2-yl)methoxy)(phenoxy)phosphoryl)amino) propanoate]	180 nM	>16
CC(C)OC(=O)[C@H](C)N[P@](=O)(OC[C@@]1(CCl)O[C@@H](n2cnc3c(N(C)C)nc(N)nc32)[C@H](F)[C@@H]1O)Oc1ccccc1 [AG, (S)-Isopropyl 2-(((S)-(((2R,3R,4R,5R)-5-(2-amino-6-(dimethylamino)-9H-purin-9-yl)-2-(chloromethyl)-4-fluoro-3-hydroxytetrahydrofuran-2-yl)methoxy)(phenoxy)phosphoryl)amino) propanoate]	< 160 nM	>15
CNc1nc(F)nc2c1ncn2[C@@H]1O[C@](CCl)(CO[P@@](=O)(N[C@@H](C)C(=O)OC(C)C)Oc2ccccc2)[C@@H](O)[C@H]1F [AJ, (S)-Isopropyl 2-(((S)-(((2R,3R,4R,5R)-5-(6-(methylamino)-2-fluoro-9H-purin-9-yl)-2-(chloromethyl)-4-fluoro-3-hydroxytetrahydrofuran-2-yl)methoxy)(phenoxy)phosphoryl)amino) propanoate]	> 1600 nM	>1.6
CNc1nc(N)nc2c1ncn2[C@@H]1O[C@](C)(CO[P@@](=O)(N[C@@H](C)C(=O)OC(C)C)Oc2ccccc2)[C@@H](O)[C@@H]1F [AK, (S)-Isopropyl 2-(((S)-(((2R,3R,4S,5R)-5-(2-amino-6-(methylamino)-9H-purin-9-yl)-4-fluoro-3-hydroxy-2-methyltetrahydrofuran-2-yl)methoxy)(phenoxy)phosphoryl)amino) propanoate]	1100 nM	>1.7
CNc1nc(N)nc2c1ncn2[C@@H]1O[C@](CCl)(CO[P@@](=O)(N[C@@H](C)C(=O)OC(C)C)Oc2ccccc2)[C@@H](O)[C@@H]1F [AL, (S)-Isopropyl 2-(((S)-(((2R,3R,4S,5R)-5-(2-amino-6-(methylamino)-9H-purin-9-yl)-2-(chloromethyl)-4-fluoro-3-hydroxytetrahydrofuran-2-yl)methoxy)(phenoxy)phosphoryl)amino) propanoate]	> 1600 nM	>1.6
CNc1nc(OC)nc2c1ncn2[C@@H]1O[C@](C)(CO[P@@](=O)(N[C@@H](C)C(=O)OC(C)C)Oc2ccccc2)[C@@H](O)[C@H]1F [AM, (S)-Isopropyl 2-(((S)-(((2R,3R,4R,5R)-5-(6-(methylamino)-2-methoxy-9H-purin-9-yl)-4-fluoro-3-hydroxy-2-methyltetrahydrofuran-2-yl)methoxy)(phenoxy)phosphoryl)amino) propanoate]	1100 nM	>1.7
CNc1nc(OC)nc2c1ncn2[C@@H]1O[C@](CCl)(CO[P@@](=O)(N[C@@H](C)C(=O)OC(C)C)Oc2ccccc2)[C@@H](O)[C@H]1F [AN, (S)-Isopropyl 2-(((S)-(((2R,3R,4R,5R)-5-(6-(methylamino)-2-methoxy-9H-purin-9-yl)-2-(chloromethyl)-4-fluoro-3-hydroxytetrahydrofuran-2-yl)methoxy)(phenoxy)phosphoryl)amino) propanoate]	> 1600 nM	>1.6
CNc1nc(F)nc2c1ncn2[C@@H]1O[C@](C)(CO[P@@](=O)(N[C@@H](C)C(=O)OC(C)C)Oc2ccccc2)[C@@H](O)[C@@H]1F [AP, (S)-Isopropyl 2-(((S)-(((2R,3R,4S,5R)-5-(6-(methylamino)-2-fluoro-9H-purin-9-yl)-4-fluoro-3-hydroxy-2-methyltetrahydrofuran-2-yl)methoxy)(phenoxy)phosphoryl)amino) propanoate]	34 nM	>1.7
CNc1nc(Cl)nc2c1ncn2[C@@H]1O[C@](C)(CO[P@@](=O)(N[C@@H](C)C(=O)OC(C)C)Oc2ccccc2)[C@@H](O)[C@H]1F [AR, (S)-Isopropyl 2-(((S)-(((2R,3R,4R,5R)-5-(6-(methylamino)-2-chloro-9H-purin-9-yl)-4-fluoro-3-hydroxy-2-methyltetrahydrofuran-2-yl)methoxy)(phenoxy)phosphoryl)amino) propanoate]	1000 nM	>1.6
CC(C)OC(=O)[C@H](C)N[P@](=O)(OC[C@@]1(C)O[C@@H](n2cnc3c(N(C)C4CC4)nc(N)nc32)[C@H](F)[C@@H]1O)Oc1ccccc1 [AS, (S)-Isopropyl 2-(((S)-(((2R,3R,4R,5R)-5-(2-amino-6-(cyclopropyl(methyl)amino)-9H-purin-9-yl)-4-fluoro-3-hydroxy-2-methyltetrahydrofuran-2-yl)methoxy)(phenoxy)phosphoryl)amino) propanoate]	1500 nM	>1.6
CNc1nc(N)nc2c1ncn2[C@@H]1O[C@](CF)(CO[P@@](=O)(N[C@@H](C)C(=O)OC(C)C)Oc2ccccc2)[C@@H](O)[C@@H]1F [AT, (S)-Isopropyl 2-(((S)-(((2R,3R,4S,5R)-5-(2-amino-6-(methylamino)-9H-purin-9-yl)-4-fluoro-2-(fluoromethyl)-3-hydroxytetrahydrofuran-2-yl)methoxy)(phenoxy)phosphoryl)amino) propanoate]	180 nM	>1.6
CNc1nc(NC)c2ncn([C@@H]3O[C@](C)(CO[P@@](=O)(N[C@@H](C)C(=O)OC(C)C)Oc4ccccc4)[C@@H](O)[C@H]3F)c2n1 [AU, (S)-Isopropyl 2-(((S)-(((2R,3R,4R,5R)-5-(2,6-bis(methylamino)-9H-purin-9-yl)-4-fluoro-3-hydroxy-2-methyltetrahydrofuran-2-yl)methoxy)(phenoxy)phosphoryl)amino) propanoate]	> 1700 nM	>1.7
CC(C)OC(=O)[C@H](C)N[P@](=O)(OC[C@@]1(C)O[C@@H](n2cnc3c(NC4CC4)nc(N)nc32)[C@H](F)[C@@H]1O)Oc1ccccc1 [AV, (S)-Isopropyl 2-(((S)-(((2R,3R,4R,5R)-5-(2-amino-6-(cyclopropylamino)-9H-purin-9-yl)-4-fluoro-3-hydroxy-2-methyltetrahydrofuran-2-yl)methoxy)(phenoxy)phosphoryl)amino) propanoate]	99 nM	>1.6
CNc1nc(N)nc2c1ncn2[C@@H]1O[C@](C)(CO[P@@](=O)(N[C@@H](C)C(=O)OC(C)C)Oc2ccccc2)[C@@H](O)[C@H]1F [Compound AC]	74 nM	>1.4
CC(C)OC(=O)[C@H](C)N[P@](=O)(OC[C@@]1(C)O[C@@H](n2cnc3c(N(C)C)nc(F)nc32)[C@H](F)[C@@H]1O)Oc1ccccc1 [Compound AD, (S)-Isopropyl 2-(((S)-(((2R,3R,4R,5R)-5-(6-(dimethylamino)-2-fluoro-9H-purin-9-yl)-4-fluoro-3-hydroxy-2-methyltetrahydrofuran-2-yl)methoxy)(phenoxy)phosphoryl)amino) propanoate]	8400 nM	>16
CC(C)OC(=O)[C@H](C)N[P@](=O)(OC[C@@]1(C)O[C@@H](n2cnc3c(N(C)C)nc(Cl)nc32)[C@H](F)[C@@H]1O)Oc1ccccc1 [Compound AE, (S)-Isopropyl 2-(((S)-(((2R,3R,4R,5R)-5-(6-(dimethylamino)-2-chloro-9H-purin-9-yl)-4-fluoro-3-hydroxy-2-methyltetrahydrofuran-2-yl)methoxy)(phenoxy)phosphoryl)amino) propanoate]	9300 nM	>16
CNc1nc(N)nc2c1ncn2[C@@H]1O[C@@](CO)(CCl)[C@@H](O)[C@H]1F [Compound M, (2R,3R,4R,5R)-5-(2-Amino-6-(methylamino)-9H-purin-9-yl)-2-(chloromethyl)-4-fluoro-2-(hydroxymethyl)tetrahydrofuran-3-ol]	2900 nM	>288
